The source of these data is ChEMBL document CHEMBL1201862, “PubChem BioAssay data set” (2004).

Molecules are shown by their SMILES. Calls of active or inactive are those of the source. For most assays here, no stated cut-off is given here; in the data, actives have a measured IC50 and inactives only a lower limit.

In general, IC50 refers to the concentration at which inhibition is half-maximal.

Holding throughout (assay type): functional
For one experiment, the target named is T1, Hexokinase HKDC1 (Homo sapiens, UniProt Q2TB90).
T1 sequence (Q2TB90 whole entry): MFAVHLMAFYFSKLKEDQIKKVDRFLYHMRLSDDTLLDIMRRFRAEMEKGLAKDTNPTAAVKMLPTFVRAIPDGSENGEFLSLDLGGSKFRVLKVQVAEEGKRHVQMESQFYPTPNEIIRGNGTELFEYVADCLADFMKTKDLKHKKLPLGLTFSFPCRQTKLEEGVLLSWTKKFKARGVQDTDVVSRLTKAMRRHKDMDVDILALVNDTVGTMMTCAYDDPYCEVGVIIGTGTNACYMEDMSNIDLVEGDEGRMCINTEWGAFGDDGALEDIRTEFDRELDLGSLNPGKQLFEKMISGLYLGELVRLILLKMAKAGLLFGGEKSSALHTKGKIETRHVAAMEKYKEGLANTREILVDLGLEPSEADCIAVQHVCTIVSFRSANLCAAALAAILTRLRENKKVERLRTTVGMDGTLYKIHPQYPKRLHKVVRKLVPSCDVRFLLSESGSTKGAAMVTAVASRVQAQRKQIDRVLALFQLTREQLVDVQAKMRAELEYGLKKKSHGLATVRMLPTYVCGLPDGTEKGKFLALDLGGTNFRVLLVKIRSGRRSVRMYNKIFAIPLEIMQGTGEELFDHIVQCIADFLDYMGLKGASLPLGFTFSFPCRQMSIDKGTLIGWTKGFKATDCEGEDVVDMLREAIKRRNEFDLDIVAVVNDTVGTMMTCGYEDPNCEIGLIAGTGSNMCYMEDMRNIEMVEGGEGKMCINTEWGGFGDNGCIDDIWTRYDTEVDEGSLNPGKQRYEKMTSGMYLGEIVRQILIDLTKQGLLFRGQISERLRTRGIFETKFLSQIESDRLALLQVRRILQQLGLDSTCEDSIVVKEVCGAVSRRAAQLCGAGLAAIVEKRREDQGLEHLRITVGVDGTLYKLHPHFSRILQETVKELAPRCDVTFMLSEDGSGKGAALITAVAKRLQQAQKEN
Kind of experiment: SAR analysis of small molecule inhibitors of hexokinase domain containing I (HKDC1). [Related pubchem assays (depositor defined):AID493160, AID493190].

For a further experiment, the target named is T2, Hexokinase-1 (Homo sapiens, UniProt P19367).
T2 sequence (P19367 whole entry): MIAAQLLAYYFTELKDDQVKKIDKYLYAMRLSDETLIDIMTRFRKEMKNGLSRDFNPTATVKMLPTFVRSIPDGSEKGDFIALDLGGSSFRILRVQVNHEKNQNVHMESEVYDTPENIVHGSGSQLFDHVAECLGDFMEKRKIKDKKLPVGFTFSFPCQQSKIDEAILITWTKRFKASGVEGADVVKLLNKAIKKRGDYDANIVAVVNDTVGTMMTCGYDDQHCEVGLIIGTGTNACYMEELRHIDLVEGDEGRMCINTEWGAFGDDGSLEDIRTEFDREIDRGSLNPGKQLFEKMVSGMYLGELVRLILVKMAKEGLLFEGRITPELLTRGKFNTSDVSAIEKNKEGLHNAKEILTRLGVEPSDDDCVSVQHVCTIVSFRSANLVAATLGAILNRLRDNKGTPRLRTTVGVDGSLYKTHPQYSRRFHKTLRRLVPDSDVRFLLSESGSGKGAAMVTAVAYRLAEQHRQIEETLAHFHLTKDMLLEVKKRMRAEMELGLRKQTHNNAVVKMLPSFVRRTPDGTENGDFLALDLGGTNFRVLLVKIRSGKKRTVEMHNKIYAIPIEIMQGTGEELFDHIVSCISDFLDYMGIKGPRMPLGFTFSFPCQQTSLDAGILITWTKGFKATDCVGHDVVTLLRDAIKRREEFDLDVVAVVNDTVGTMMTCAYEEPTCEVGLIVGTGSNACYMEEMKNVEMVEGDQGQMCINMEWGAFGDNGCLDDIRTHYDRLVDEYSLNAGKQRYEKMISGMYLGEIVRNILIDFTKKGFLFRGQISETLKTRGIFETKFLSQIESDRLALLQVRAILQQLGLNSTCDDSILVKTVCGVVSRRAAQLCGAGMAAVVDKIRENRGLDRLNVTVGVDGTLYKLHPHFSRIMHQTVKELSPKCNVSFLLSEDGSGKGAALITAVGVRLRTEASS
Kind of experiment: SAR analysis of small molecule inhibitors of hexokinase domain containing I (HKDC1) in the hexokinase 1 selectivity assay. [Related pubchem assays (depositor defined):AID493160, AID493190].

For experiment [1], the target named is T3, Sentrin-specific protease 6 (Homo sapiens, UniProt Q9GZR1).
T3 sequence (Q9GZR1 whole entry): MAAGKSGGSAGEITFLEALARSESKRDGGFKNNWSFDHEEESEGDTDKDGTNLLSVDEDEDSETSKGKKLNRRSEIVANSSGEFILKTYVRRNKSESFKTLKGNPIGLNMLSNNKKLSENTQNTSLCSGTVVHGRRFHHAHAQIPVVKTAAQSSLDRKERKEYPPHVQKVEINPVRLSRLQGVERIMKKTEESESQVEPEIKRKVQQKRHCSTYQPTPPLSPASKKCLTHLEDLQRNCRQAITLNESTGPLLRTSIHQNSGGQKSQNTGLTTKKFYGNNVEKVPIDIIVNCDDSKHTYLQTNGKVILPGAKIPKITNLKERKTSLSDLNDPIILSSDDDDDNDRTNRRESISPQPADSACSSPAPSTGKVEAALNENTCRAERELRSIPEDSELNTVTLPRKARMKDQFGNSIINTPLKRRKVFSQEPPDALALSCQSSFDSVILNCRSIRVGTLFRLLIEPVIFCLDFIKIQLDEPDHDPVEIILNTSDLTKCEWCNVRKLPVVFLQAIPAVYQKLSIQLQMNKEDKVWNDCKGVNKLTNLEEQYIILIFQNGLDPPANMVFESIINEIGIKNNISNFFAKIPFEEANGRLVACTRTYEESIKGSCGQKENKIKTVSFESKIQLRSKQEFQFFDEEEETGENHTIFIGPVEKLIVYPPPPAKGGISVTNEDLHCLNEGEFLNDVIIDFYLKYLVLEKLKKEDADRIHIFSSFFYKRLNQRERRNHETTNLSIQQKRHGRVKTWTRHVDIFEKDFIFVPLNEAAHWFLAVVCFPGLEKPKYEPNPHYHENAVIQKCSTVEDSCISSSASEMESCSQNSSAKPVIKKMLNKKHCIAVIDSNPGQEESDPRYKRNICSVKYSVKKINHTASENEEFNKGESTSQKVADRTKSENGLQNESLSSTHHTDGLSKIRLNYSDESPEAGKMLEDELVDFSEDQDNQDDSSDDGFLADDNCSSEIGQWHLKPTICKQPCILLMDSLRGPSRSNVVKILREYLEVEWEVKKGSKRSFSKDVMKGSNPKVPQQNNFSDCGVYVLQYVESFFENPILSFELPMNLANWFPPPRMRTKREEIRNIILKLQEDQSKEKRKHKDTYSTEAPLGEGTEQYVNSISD
Kind of experiment: SAR Analysis of small molecule inhibitors of Sentrin-specific protease 6 (SENP6) using a Luminescent assay. [Related pubchem assays (depositor defined):AID2582, AID2599].

Experiment [2] deals with T4, Sentrin-specific protease 7 (Homo sapiens, UniProt Q9BQF6).
T4 sequence (Q9BQF6 whole entry): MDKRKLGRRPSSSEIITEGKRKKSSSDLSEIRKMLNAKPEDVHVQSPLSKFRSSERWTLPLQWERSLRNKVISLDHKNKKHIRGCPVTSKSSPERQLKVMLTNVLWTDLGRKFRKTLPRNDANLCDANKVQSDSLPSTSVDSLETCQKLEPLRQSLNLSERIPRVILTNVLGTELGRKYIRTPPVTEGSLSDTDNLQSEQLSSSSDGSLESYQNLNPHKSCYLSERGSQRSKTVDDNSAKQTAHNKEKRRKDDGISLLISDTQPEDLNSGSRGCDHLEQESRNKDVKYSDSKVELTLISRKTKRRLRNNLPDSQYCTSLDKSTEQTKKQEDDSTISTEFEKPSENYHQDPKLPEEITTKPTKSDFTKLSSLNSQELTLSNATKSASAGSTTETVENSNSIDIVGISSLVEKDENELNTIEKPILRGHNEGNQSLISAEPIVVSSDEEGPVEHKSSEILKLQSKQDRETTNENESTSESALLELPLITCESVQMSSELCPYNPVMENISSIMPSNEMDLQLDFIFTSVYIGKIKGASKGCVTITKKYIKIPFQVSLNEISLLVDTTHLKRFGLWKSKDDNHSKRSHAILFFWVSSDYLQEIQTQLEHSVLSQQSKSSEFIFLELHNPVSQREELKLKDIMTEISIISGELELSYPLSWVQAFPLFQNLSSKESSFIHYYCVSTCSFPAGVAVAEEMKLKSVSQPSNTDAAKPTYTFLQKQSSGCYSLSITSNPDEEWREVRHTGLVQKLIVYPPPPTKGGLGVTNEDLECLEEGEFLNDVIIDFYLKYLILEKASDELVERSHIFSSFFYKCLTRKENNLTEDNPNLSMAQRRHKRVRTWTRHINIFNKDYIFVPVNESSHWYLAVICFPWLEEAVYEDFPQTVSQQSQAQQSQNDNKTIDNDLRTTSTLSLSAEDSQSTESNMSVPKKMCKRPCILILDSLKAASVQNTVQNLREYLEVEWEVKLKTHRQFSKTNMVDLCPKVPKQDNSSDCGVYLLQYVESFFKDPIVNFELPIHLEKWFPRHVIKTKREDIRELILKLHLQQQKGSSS
Kind of experiment: inhibition of human SENP7 cleavage activity – biochemical, luminescence, SAR follow-up (AID 504497).

Experiment [3] concerns the target T5, Caspase-3 (Homo sapiens, UniProt P42574).
T5 sequence (P42574 whole entry): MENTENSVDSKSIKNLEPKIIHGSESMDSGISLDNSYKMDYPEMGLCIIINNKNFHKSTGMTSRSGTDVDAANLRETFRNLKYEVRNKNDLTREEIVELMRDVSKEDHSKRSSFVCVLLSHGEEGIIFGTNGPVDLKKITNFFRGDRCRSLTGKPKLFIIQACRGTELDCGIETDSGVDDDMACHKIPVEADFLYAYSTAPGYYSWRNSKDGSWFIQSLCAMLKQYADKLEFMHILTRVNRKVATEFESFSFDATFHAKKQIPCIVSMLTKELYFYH

The target of experiment [4] is T4, Sentrin-specific protease 7.
Experiment [5] concerns the target T6, Sentrin-specific protease 8 (Homo sapiens, UniProt Q96LD8).
T6 sequence (Q96LD8 whole entry): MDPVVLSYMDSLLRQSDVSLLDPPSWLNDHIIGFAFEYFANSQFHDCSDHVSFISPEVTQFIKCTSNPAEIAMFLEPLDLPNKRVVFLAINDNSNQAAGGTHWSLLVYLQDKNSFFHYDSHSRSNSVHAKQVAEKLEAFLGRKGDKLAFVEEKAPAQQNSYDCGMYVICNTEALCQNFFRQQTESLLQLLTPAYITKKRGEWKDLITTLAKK
Kind of experiment: inhibition of human SENP8 cleavage activity – biochemical, luminescence, SAR follow-up (AID 504501).

Experiment [6] concerns the target T6, Sentrin-specific protease 8.
Experiment [7] concerns the target T3, Sentrin-specific protease 6.
Experiment [8] has as its target T5, Caspase-3. Kind of experiment: SAR Analysis of small molecule inhibitors of Sentrin-specific proteases (SENPs) using a Caspase-3 Selectivity assay. [Related pubchem assays (depositor defined):AID2540, AID2599, AID434973, AID489001].
Experiment [9] deals with Eukaryotic translation initiation factor 4E (Mus musculus, UniProt P63073). Kind of experiment: blockers of eIF4G binding by eIF4E – biochemical, TR-FRET, dose response (AID 855). (Time-resolved FRET reads energy transfer from a long-lived donor to a nearby acceptor.)
Sequence of Eukaryotic translation initiation factor 4E (P63073 whole entry): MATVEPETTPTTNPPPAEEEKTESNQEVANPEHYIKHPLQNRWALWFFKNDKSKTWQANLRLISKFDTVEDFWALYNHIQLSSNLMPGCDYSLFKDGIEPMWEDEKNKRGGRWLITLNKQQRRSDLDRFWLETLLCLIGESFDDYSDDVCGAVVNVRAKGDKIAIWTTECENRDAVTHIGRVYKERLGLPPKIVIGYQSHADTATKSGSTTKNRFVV

On to `Cc1nc(C)c(C(=O)Nc2cccc(C(=O)Nc3cccc(C(F)(F)F)c3)c2)s1`, for which the IC50 at Hexokinase HKDC1 and on Hexokinase-1 was > 80 µM (inactive) each time.
For `O=C(O)c1ccc(OC2CSC2)cc1`, the IC50 is 18.7 µM (active) in experiment [1]; > 99 µM (inactive) in [2]; 94.9 µM (active) on Caspase-3 [3]; > 100 µM (inactive) in [4]; 30 µM (active) in [5]; 8.43 µM (active) in experiment [6]. Besides, the 50% inhibitory concentration (IC50) was 13 µM (active) in experiment [7] and > 99 µM (inactive) on Caspase-3 [8].
In the case of `O=C(Nc1nnc(SCc2ccc(F)cc2)s1)c1ccc2ncsc2c1`, the half-inhibitory concentration (IC50) was 12 µM (active) on Hexokinase HKDC1, 26.2 µM (active) in [9] and > 80 µM (inactive) at Hexokinase-1.
Take `Clc1ccc2oc(-c3ccccc3)nc2c1`: the IC50 at Caspase-3 [3] is 14.2 µM (active); in experiment [4], 7.93 µM (active); in experiment [6], > 100 µM (inactive); in [7] it was 22 µM (active).
Regarding `O=C(O)CSc1cc(NS(=O)(=O)c2ccccc2)c2ccccc2c1O`, the IC50 is 4.84 µM (active) on Hexokinase HKDC1 and > 80 µM (inactive) on Hexokinase-1.
